Where a SMILES comes first, the peptide text is derived from it. [ ]: non-standard residue; d: D form. The star is where a group is joined. Biotin = O=C1N[C@H]2[C@H](CS[C@H]2CCCCC(=O)*)N1; Phe(3,4-Cl2) = N[C@@H](Cc1ccc(Cl)c(Cl)c1)C(=O)O; Lys(Me3) = C[N+](C)(C)CCCC[C@H](N)C(=O)O; Phe(4-Me) = Cc1ccc(C[C@H](N)C(=O)O)cc1; Palmitoyl = CCCCCCCCCCCCCCCC(=O)*; Ahp = NCCCCCCC(=O)O; βAla = NCCC(=O)O
How the values were obtained:
Assay type in all cases: cell-based, Human
[1] = tested on: Collagen I (type I collagen); experiment: ELISA: effect of increasing the content of Collagen I in fibroblasts; design: Effect of increasing the content of Collagen I in the fibroblasts: unit not given here; conditions: 1 µM, 24 h; for Effect of increasing the content of Collagen I in the fibroblasts: human-derived fibroblasts, ELISA, blank control BC = 35.6; for increase in the content of type I collagen (Collagen I): in words, compared to the BC, fibroblasts
Method: (§1) B. Effects of increasing the contents of Collagen I (type I collagen), hyaluronic acid (HA), and Elastin (ELN) in fibroblasts
(§2) Test materials: Human-derived fibroblasts (Guangdong BioCell Biotechnology Co., Ltd., Lot No. Fb20081902), DMEM culture medium (Gibco, 23042301, expiration date 230522), PBS (Solarbio, P1010), TGF-β1 (Peprotech, 230504), Collagen I ELISA Kit (Cusabio, B21025824), Elastin ELISA Kit (Abcam, GR3446070-2), HA ELISA Kit (RD, P325066), CO2 incubator (Thermo, 150I), super-clean bench (AIRTECH, SW-CJ-1F), and microplate reader (BioTek, Epoch).
(§3) Test methods: • 1) Inoculation: After cell resuscitation, the cells were inoculated into 6-well plates when the plating rate reached around 60%, and were incubated overnight in an incubator (37°C, 5% CO2). • 2) Formulation of solutions: The linear peptide compounds in the sample groups, and PC2 (Biotinoyl-GHK, [drawing 69] ) and PC3 ( [drawing 70] ) in the positive control group were all at the concentration of 1 µM, and the test substance working solutions were formulated. • 3) Administration: When the cell plating rate in the 6-well plates reached 40% to 60%, administration was performed at 2 mL per well. Three duplicate wells were set for each group. Incubation was performed in an incubator (37°C, 5% CO2) for 24 h. • 4) ELISA assay: The ELISA assays were performed according to the instructions of the respective ELISA kits, with the detection indicators being effect of increasing the content of Collagen I in the fibroblasts, effect of increasing the content of HA in the fibroblasts, and effect of increasing the content of Elastin in the fibroblasts, respectively.

Elastin (ELN) = experiment: ELISA: effect of increasing the content of Elastin in fibroblasts; design: Effect of increasing the content of Elastin in the fibroblasts: unit not given here; conditions: 1 µM; for Effect of increasing the content of Elastin in the fibroblasts: 24 h incubation, ELISA, blank control (BC) 756.52; for increase in the content of Elastin: in words, compared to the BC, 24 h, fibroblasts
Method: as §1, §2, §3

hyaluronic acid (HA) = experiment: ELISA: effect of increasing the content of HA in fibroblasts; design: Effect of increasing the content of HA in the fibroblasts: unit not given here; conditions: 1 µM, 24 h
Method: as §1, §2, §3

Row | SMILES | Effect of increasing the content of Collagen I in the fibroblasts [1] | increase in the content of type I collagen (Collagen I) [1] | Effect of increasing the content of Elastin in the fibroblasts (Elastin (ELN)) | increase in the content of Elastin (Elastin (ELN)) | Effect of increasing the content of HA in the fibroblasts (hyaluronic acid (HA); human-derived fibroblasts, ELISA, blank control BC = 1402.44) | increase in the content of hyaluronic acid (HA) (hyaluronic acid (HA); in words, compared to the BC, fibroblasts)
1 | CNC(=O)[C@H](CCCCN)NC(=O)[C@H](Cc1c[nH]cn1)NC(=O)CNC(=O)CCCCCCNC(=O)[C@H](CCCCN)NC(=O)[C@H](Cc1c[nH]cn1)NC(=O)CNC(C)=O [compound 6] (Ac-GHK[Ahp]GHK-NHMe) | 44.54 | significant increase | 1070.92 | significant increase |  | 
2 | CNC(=O)[C@H](CCCCN)NC(=O)[C@H](Cc1c[nH]cn1)NC(=O)CNC(=O)CCNC(=O)CCNC(=O)[C@H](CCCCN)NC(=O)[C@H](Cc1c[nH]cn1)NC(=O)CNC(C)=O [compound 21] (Ac-GHK[βAla][βAla]GHK-NHMe) |  |  | 1160.14 | significant increase | 2423.11 | significant increase
3 | CCCCCCCCCCCCCCCC(=O)NCCCCCCC(=O)N[C@@H](CCCCN)C(=O)N[C@@H](Cc1c[nH]cn1)C(=O)NCC(=O)O [compound 224] ({Palmitoyl-Ahp}-Lys-His-Gly-OH) | 56.19 | significant increase | 932.65 | significant increase |  | 
4 | NCCCC[C@H](NC(=O)CCCCCCNC(=O)CCCC[C@@H]1SC[C@@H]2NC(=O)N[C@@H]21)C(=O)N[C@@H](Cc1c[nH]cn1)C(=O)NCC(N)=O [compound 242] ({Biotin-Ahp}-Lys-His-Gly-NH2) | 70.24 | significant increase | 1159.72 | significant increase |  | 
5 | C[N+](C)(C)CCCC[C@H](NC(=O)CCCC[C@@H]1SC[C@@H]2NC(=O)N[C@@H]21)C(=O)NCCCCCCC(=O)NCC(=O)N[C@@H](Cc1c[nH]cn1)C(=O)N[C@@H](CCCCNC(=O)[C@@H]1CCCN1)C(N)=O [compound 265] (Biotin-[Lys(Me3)][Ahp]GHK(Pro)-NH2) | 56.34 | significant increase | 1008.26 | significant increase |  | 
6 | C[C@H](NC(=O)[C@H](Cc1ccc(Cl)c(Cl)c1)NC(=O)CCCC[C@@H]1SC[C@@H]2NC(=O)N[C@@H]21)C(=O)N[C@@H](CCCCN)C(=O)N[C@@H](Cc1c[nH]cn1)C(=O)NCC(=O)N[C@@H](CCCC[N+](C)(C)C)C(N)=O [compound 419] (Biotin-[Phe(3,4-Cl2)]AKHG[Lys(Me3)]-NH2) | 109.96 | significant increase | 1015.58 | significant increase |  | 
7 | CCCCCCCCCCCCCCCC(=O)N[C@@H](CCCC[N+](C)(C)C)C(=O)NCC(=O)N[C@@H](Cc1c[nH]cn1)C(=O)N[C@@H](CCCCN)C(=O)N[C@@H](C)C(=O)N[C@@H](Cc1ccc(C)cc1)C(=O)O [compound 424] (Palmitoyl-[Lys(Me3)]GHKA[Phe(4-Me)]-OH) | 97.9 | significant increase | 897.36 | significant increase |  | 

Reference: EP4786485A1, “STRAIGHT CHAIN PEPTIDE COMPOUND AND USE THEREOF” (Shenzhen Zhongge Biological Technology Co., Ltd., priority 2023, dated 2026)
